Assay results: patent publication US8268747B2, “Safening penoxsulam herbicide injury in water-seeded, direct-seeded and transplanted paddy rice” (Dow AgroSciences, LLC., priority 2009, dated 2012)

Assays:
[1] = test system: Oryza sativa 'M205' (rice); settings: in vivo
Procedure: (§1) Evaluation of Postemergence Herbicidal Safening in Water-Seeded Rice
(§2) Pre-germinated rice was applied directly into a flooded rice paddy. The rice paddy was prepared as per normal cultural practices, by applying appropriate fertilizers, working and leveling the ground before flooding, with water flooded across the entire field to a depth of 1 to 5 inches prior to seeding with the pre-germinated rice seed.
(§3) Treatments consisted of penoxsulam and clomazone applied alone and in combination directly into the flooded rice paddy as granular formulated treatments. These treatments could also be applied as liquid applications directly into the water. Clomazone was applied the day of rice seeding, at 13 days after rice seeding, and in combination with penoxsulam at 13 days after rice seeding. Penoxsulam was applied alone and in combination with clomazone at 13 days after rice seeding.
(§4) Colby's equation was used to determine the herbicidal effects expected from the mixtures (Colby, S. R. 1967. Calculation of the synergistic and antagonistic response of herbicide combinations. Weeds 15:20-22.).
(§5) The following equation was used to calculate the expected activity of mixtures containing two active ingredients, A and B: Expected=A+B−(A×B/100)
(§6) A=observed efficacy of active ingredient A at the same concentration as used in the mixture.
(§7) B=observed efficacy of active ingredient B at the same concentration as used in the mixture.

[2] = test system: Oryza sativa 'M205' (rice); experiment: Rice % stand reduction, postemergence safening in water-seeded rice
Procedure: as §1, §2, §3, §4, §5, §6, §7

[3] = test system: Echinochloa oryzoides (watergrass); experiment: % visual weed control in water-seeded rice, ECHOR; format: in vivo; settings: 13 days after seeding, 27 days after treatment
Procedure: as §2, §3, §4, §5, §6, §7

[4] = test system: Leptochloa fascicularis (sprangletop); experiment: % visual weed control in water-seeded rice, LEFFA; format: in vivo; settings: 13 days after seeding, 27 days after treatment
Procedure: as §2, §3, §4, §5, §6, §7

[5] = test system: Cyperus difformis (smallflower umbrella sedge); experiment: % visual weed control in water-seeded rice, CYPDI; format: in vivo; settings: 13 days after seeding, 27 days after treatment
Procedure: as §2, §3, §4, §5, §6, §7

CC1(C)CON(Cc2ccccc2Cl)C1=O [Clomazone, 2-[(2-chlorophenyl)methyl]-4,4-dimethyl-3-isoxazolidinone]
visual injury to rice (text summary of Table 1) [1]: 0-3% | effect on the rice stand (text summary of Table 2) ([2]; clomazone alone): negligible effect | Rice % Stand Reduction Ratings ORYSA (3) Exp ([2]; in vivo): 3% | Rice % Stand Reduction Ratings ORYSA (3) Obs ([2]; in vivo): 3% | % Weed Control Ratings ECHOR (1) Obs ([3]; clomazone 224 g ai/ha alone): 93% | % Weed Control Ratings ECHOR (1) Obs ([3]; clomazone 336 g ai/ha alone): 96% | % Weed Control Ratings ECHOR (1) Obs ([3]; clomazone 448 g ai/ha alone): 97% | % Weed Control Ratings LEFFA (2) Obs ([4]; clomazone 224 g ai/ha alone): 98% | % Weed Control Ratings LEFFA (2) Obs ([4]; clomazone 336 g ai/ha alone): 99% | % Weed Control Ratings LEFFA (2) Obs ([4]; clomazone 448 g ai/ha alone): 99% | % Weed Control Ratings CYPDI (3) Obs ([5]; clomazone 224 g ai/ha alone): 73% | % Weed Control Ratings CYPDI (3) Obs ([5]; clomazone 336 g ai/ha alone): 88% | % Weed Control Ratings CYPDI (3) Obs ([5]; clomazone 448 g ai/ha alone): 87%

COc1cnc(OC)n2nc(NS(=O)(=O)c3c(OCC(F)F)cccc3C(F)(F)F)nc12 [Penoxsulam, 2-(2,2-difluoroethoxy)-N-(5,8-dimethoxy[1,2,4]triazolo[1,5-c]pyrimidin-2-yl)-6-(trifluoromethyl)benzenesulfonamide]
Rice % Visual Injury Ratings ORYSA (1) Obs [1]: 12% | Rice % Visual Injury Ratings ORYSA (2) Obs [1]: 9% | Rice % Visual Injury Ratings ORYSA (3) Obs [1]: 5% | injury to rice (text summary of Table 1) [1]: slight injury | Rice % Stand Reduction Ratings ORYSA (1) Exp ([2]; in vivo): 27% | Rice % Stand Reduction Ratings ORYSA (1) Obs ([2]; in vivo): 27% | Rice % Stand Reduction Ratings ORYSA (2) Exp ([2]; in vivo): 33% | Rice % Stand Reduction Ratings ORYSA (2) Obs ([2]; in vivo): 33% | Rice % Stand Reduction Ratings ORYSA (3) Exp ([2]; in vivo): 33% | Rice % Stand Reduction Ratings ORYSA (3) Obs ([2]; in vivo): 33% | impact on the rice stand (text summary of Table 2) ([2]; in vivo): slight negative impact | % Weed Control Ratings ECHOR (1) Obs ([3]; penoxsulam 40 g ai/ha alone): 98% | % Weed Control Ratings LEFFA (2) Obs ([4]; penoxsulam 40 g ai/ha alone): 74% | % Weed Control Ratings CYPDI (3) Obs ([5]; penoxsulam 40 g ai/ha alone): 99%
